In ChEMBL document CHEMBL5257156, “Improving binding entropy by higher ligand symmetry? - A case study with human matriptase” (RSC Med Chem, 2023):

Legend:
[1] = target: T1, Suppressor of tumorigenicity 14 protein (Homo sapiens, UniProt Q9Y5Y6); assay: Inhibition of recombinant hexahistidine tagged human MT-SP1 (596 to 855 residues) expressed in Escherichia coli BL21 gold (DE3) cells using Boc-Leu-Arg-Arg-AMC as substrate measured every 30 secs for 10 mins by fluorescence based assay
T1 sequence (Q9Y5Y6 whole entry): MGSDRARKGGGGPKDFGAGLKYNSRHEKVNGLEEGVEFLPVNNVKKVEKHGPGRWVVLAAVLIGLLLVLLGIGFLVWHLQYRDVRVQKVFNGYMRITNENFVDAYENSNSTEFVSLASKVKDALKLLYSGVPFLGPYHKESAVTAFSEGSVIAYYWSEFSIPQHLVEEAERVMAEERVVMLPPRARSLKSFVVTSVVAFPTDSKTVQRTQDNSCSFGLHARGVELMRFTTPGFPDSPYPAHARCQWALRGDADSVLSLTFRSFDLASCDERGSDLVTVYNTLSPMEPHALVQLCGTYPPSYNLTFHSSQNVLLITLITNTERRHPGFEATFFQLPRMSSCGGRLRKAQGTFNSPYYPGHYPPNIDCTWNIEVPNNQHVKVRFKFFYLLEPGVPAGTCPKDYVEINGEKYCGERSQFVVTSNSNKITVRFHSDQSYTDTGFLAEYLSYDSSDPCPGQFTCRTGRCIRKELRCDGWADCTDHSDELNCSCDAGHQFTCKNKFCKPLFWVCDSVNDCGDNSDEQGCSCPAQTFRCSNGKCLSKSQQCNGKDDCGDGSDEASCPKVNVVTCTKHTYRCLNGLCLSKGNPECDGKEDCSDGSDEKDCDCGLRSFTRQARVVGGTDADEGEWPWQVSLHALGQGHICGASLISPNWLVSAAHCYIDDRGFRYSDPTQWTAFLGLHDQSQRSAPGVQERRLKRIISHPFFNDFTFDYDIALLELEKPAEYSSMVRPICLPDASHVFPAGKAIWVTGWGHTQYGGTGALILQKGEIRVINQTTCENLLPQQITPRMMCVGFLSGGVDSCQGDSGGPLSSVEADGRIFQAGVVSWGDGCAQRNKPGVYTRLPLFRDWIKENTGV

[2] = target: T2, Suppressor of tumorigenicity 14 protein (Homo sapiens) (UniProt Q9Y5Y6); assay: Binding affinity to recombinant hexahistidine tagged human MT-SP1 (596 to 855 residues) expressed in Escherichia coli BL21 gold (DE3) cells assessed as change in enthalpy by ITC analysis
T2 sequence (whole entry): T1 sequence (Q9Y5Y6 whole entry)

[3] = target: T2, Suppressor of tumorigenicity 14 protein (Homo sapiens); assay: Binding affinity to recombinant hexahistidine tagged human MT-SP1 (596 to 855 residues) expressed in Escherichia coli BL21 gold (DE3) cells assessed as free energy change by ITC analysis
[4] = target: T1, Suppressor of tumorigenicity 14 protein; assay: Binding affinity to recombinant hexahistidine tagged human MT-SP1 (596 to 855 residues) expressed in Escherichia coli BL21 gold (DE3) cells […] by ITC analysis
[5] = target: T2, Suppressor of tumorigenicity 14 protein (Homo sapiens); assay: Binding affinity to recombinant hexahistidine tagged human MT-SP1 (596 to 855 residues) expressed in Escherichia coli BL21 gold (DE3) cells assessed as change in entropy by ITC analysis
[6] = target: T1, Suppressor of tumorigenicity 14 protein; assay: Inhibition of human matriptase using Mes-D-Pro-Arg-AMC.2TFA as substrate incubated for 10 mins by fluorescence based assay

N=C(N)c1ccc(Oc2cc(Oc3ccc(CN)cc3)cc(Oc3ccc(CN)cc3)c2)cc1
Ki [1]: 0.775 µM
deltaH [2]: 2.03 kcal/mol
deltaG [3]: -7.67 kcal/mol
Kd [4]: 2.52 µM
-TdeltaS [5]: -9.7 kcal/mol

N=C(N)c1ccc(CCNC(=O)C(C(=O)NCCc2ccc(C(=N)N)cc2)C(=O)NCc2ccc(C(=N)N)cc2)cc1 (stereo not given)
deltaH [2]: -1.63 kcal/mol
Ki [6]: 0.393 µM
deltaG [3]: -8.82 kcal/mol
Kd [4]: 0.392 µM
-TdeltaS [5]: -7.19 kcal/mol

N=C(N)c1ccc(CCNC(=O)CC(=O)NCCc2ccc(C(=N)N)cc2)cc1
deltaH [2]: -3.35 kcal/mol
Ki [6]: 4.23 µM
deltaG [3]: -7.98 kcal/mol
Kd [4]: 1.45 µM
-TdeltaS [5]: -4.64 kcal/mol

NCc1ccc(Oc2cc(Oc3ccc(CN)cc3)cc(Oc3ccc(CN)cc3)c2)cc1
Ki [1]: 18.4 µM
deltaH [2]: 1.24 kcal/mol
deltaG [3]: -6.91 kcal/mol
Kd [4]: 10.2 µM
-TdeltaS [5]: -8.15 kcal/mol
